Patent US11518764B2, “Substituted heteroaryls as inhibitors of the BCL6 BTB domain protein-protein interaction” (Ontario Institute for Cancer Research (OICR), priority 2018, dated 2022)
Like-named read-outs stand apart in the source and are kept apart here.

Experiments:
[1] = tested on: BCL6 reporter construct (3xBCL6-TK-Luc) in SuDHL4 cells; assay: Cell-based luciferase assay
How it was run: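 SuDHL4 cells stably carrying a 3×BCL6-site TK-promoter firefly luciferase reporter, seeded at 15,000 cells/well, were dosed over a 10-point range (top 10 uM) and grown two days at 37 °C, 5% CO2. Luminescence then read after adding neolite reagent at room temperature.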

Karpas422 cells = assay: Tumor cell growth inhibition assay; format: cell-based
How it was run: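 Growth inhibition was measured by ATPlite luminescence after six days of culture at 37° C. in 5% CO2. Karpas422 cells were seeded at 2,000 per well in Alpha-MEM plus 10% FBS. Compounds were given as a 10-point concentration series with a highest dose of 5 uM.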

BCL6 BTB domain = BCL6 BTB domain (Homo sapiens (Human), UniProt P41182); assay: Surface plasmon resonance (SPR) assay; format: binding; details: BCL6 BTB domain captured on SA chip, single cycle kinetics
[2] = Homo sapiens, SU-DHL-4, 48 h, read-out: Luciferase-Assay EC50, uM), SuDHL4-3xBCL6-TK-Luc cells, two days, high dose 10 uM
[3] = Homo sapiens, KARPAS-422, 144 h, read-out: Tumor Growth Inhibition in Karpas-422 (IC50, uM), Karpas422 cells, six days, ATPlite
[4] = read-out: Tumor Growth Inhibition in Karpas-422 (IC50), Karpas422 cells, six days, ATPlite

| Compound | EC50 [1, 2] | IC50 (Karpas422 cells; [3]) | Kd (BCL6 BTB domain) | IC50 (Karpas422 cells; [4]) | EC50 ([1]; read-out: Luciferase-Assay EC50, SuDHL4-3xBCL6-TK-Luc cells, two days, high dose 10 uM) |
| --- | --- | --- | --- | --- | --- |
| C[C@@H]1CN(c2cc(NC(=O)Cn3cc(-c4cc(Cl)c(O)c(C(N)=O)c4)c4c(=O)n(C)cnc43)c(Cl)cn2)C[C@H](C)O1 [Compound I-13] | 0.17 µM | 0.18 µM | 22 nM | – | – |
| C[C@H]1COCCN1c1cc(NC(=O)Cn2cc(-c3cc(F)c(O)c(C(N)=O)c3)c3c(=O)n(C)cnc32)c(Cl)c(F)n1 [Compound I-319] | 0.104 µM | 0.0994 µM | 3.96 nM | – | – |
| CC(C)CN1CCN(c2cc(NC(=O)Cn3cc(-c4cc(C(N)=O)c(O)c(F)c4F)c4c(=O)n(C)cnc43)c(Cl)c(F)n2)[C@@H](C)C1 [Compound I-458] | 0.963 µM | 3.68 µM | 55.8 nM | – | – |
| C[C@H]1COCCN1c1cc(NC(=O)Cn2cc(-c3cc(C(N)=O)c(O)c(F)c3F)c3c(=O)n(C)cnc32)c(Cl)cn1 [Compound I-180] | 1.37 µM | 2.18 µM | 45.4 nM | – | – |
| COc1c(O)c(C(N)=O)cc(-c2cn(CC(=O)Nc3cc(N4CCN(C)CC4)ncc3Cl)c3ncn(C)c(=O)c23)c1F [Compound I-189] | 1.69 µM | 2.19 µM | 143 nM | – | – |
| Cc1cc(NC(=O)Cn2cc(-c3cc(Cl)c(O)c(C(N)=O)c3)c3c(=O)n(C)cnc32)c(Cl)cn1 [Compound I-334] | 0.475 µM | 0.829 µM | 30.5 nM | – | – |
| Cc1c(O)c(C(N)=O)cc(-c2cn(CC(=O)Nc3cc(N4CCOCC4)ncc3Cl)c3ncn(C)c(=O)c23)c1F [Compound I-118] | > 10 µM | 2.45 µM | 2000 nM | – | – |
| Cn1cnc2c(c(-c3cc(C(N)=O)c(O)c(Cl)c3F)cn2CC(=O)Nc2cc(N3CCOCC3)ncc2Cl)c1=O [Compound I-169] | 1.96 µM | 1.89 µM | 206 nM | – | – |
| CN1CC2CCC(C1)N2c1cc(NC(=O)Cn2cc(-c3cc(Cl)c(O)c(C(N)=O)c3)c3c(=O)n(C)cnc32)c(Cl)cn1 [Compound I-348] | 0.479 µM | 0.15 µM | 13.4 nM | – | – |
| CN1CCOC2CN(c3cc(NC(=O)Cn4cc(-c5cc(Cl)c(O)c(C(N)=O)c5)c5c(=O)n(C)c(C(F)(F)F)nc54)c(Cl)cn3)CC21 (stereo not drawn) [Compound I-395] | 0.168 µM | 0.669 µM | 48.3 nM | – | – |
| C[C@H]1CN(CC2CCC2)CCN1c1cc(NC(=O)Cn2cc(-c3cc(C(N)=O)c(O)c(F)c3F)c3c(=O)n(C)cnc32)c(Cl)cn1 [Compound I-408] | 0.759 µM | 0.463 µM | 38.2 nM | – | – |
| Cn1cnc2c(c(-c3cc(C(N)=O)c(O)c(F)c3F)cn2CC(=O)Nc2cc(N3CC4CC3CN4CC(F)(F)F)ncc2Cl)c1=O (stereo not drawn) [Compound I-363] | 0.931 µM | 1.19 µM | 59.3 nM | – | – |
| Cc1nc2c(c(-c3cc(Cl)c(O)c(C(N)=O)c3)cn2CC(=O)Nc2cc(N3CCN(C)C[C@@H]3C)ncc2Cl)c(=O)n1C [Compound I-206] | 0.122 µM | 0.128 µM | 9.34 nM | – | – |
| CN1CCOC2CN(c3cc(NC(=O)Cn4cc(-c5cc(C(N)=O)c(O)c(F)c5F)c5c(=O)n(C)cnc54)c(Cl)cn3)CC21 (stereo not drawn) [Compound I-325] | 2 µM | 1.13 µM | 40.8 nM | – | – |
| C[C@@H]1CN(c2cc(NC(=O)Cn3cc(-c4cc(C(N)=O)c(O)c(Cl)c4F)c4c(=O)n(C)cnc43)c(Cl)cn2)C[C@H](C)O1 [Compound I-170] | 2.14 µM | – | 369 nM | 10 µM | – |
| Cn1c(CCc2ccc(F)cc2)nc2c(c(-c3cc(Cl)c(O)c(C(N)=O)c3)cn2CC(=O)Nc2cc(N3CCOCC3)ncc2Cl)c1=O [Compound I-127] | 0.756 µM | 0.276 µM | 201 nM | – | – |
| CN1C(C)(C)CN(c2cc(NC(=O)Cn3cc(-c4cc(Cl)c(O)c(C(N)=O)c4)c4c(=O)n(C)cnc43)c(Cl)cn2)CC1(C)C [Compound I-146] | 0.182 µM | 0.121 µM | 18.4 nM | – | – |
| C[C@H]1COCCN1c1cc(NC(=O)Cn2cc(-c3cc(Cl)c(O)c(C(N)=O)c3)c3c(=O)[nH]c(Cl)nc32)c(Cl)cn1 [Compound I-294] | 1.43 µM | 1.88 µM | 9.95 nM | – | – |
| CN1C2CCC1CN(c1cc(NC(=O)Cn3cc(-c4cc(F)c(O)c(C(N)=O)c4)c4c(=O)n(C)cnc43)c(Cl)cn1)C2 [Compound I-283] | 0.222 µM | 0.282 µM | 16.7 nM | – | – |
| CN1CCC2(C1)CN(c1cc(NC(=O)Cn3cc(-c4cc(Cl)c(O)c(C(N)=O)c4)c4c(=O)n(C)cnc43)c(Cl)cn1)C2 [Compound I-479] | 1.43 µM | 0.778 µM | 16.2 nM | – | – |

| Compound | EC50 [1, 2] | IC50 (Karpas422 cells; [3]) | Kd (BCL6 BTB domain) | IC50 (Karpas422 cells; [4]) | EC50 ([1]; read-out: Luciferase-Assay EC50, SuDHL4-3xBCL6-TK-Luc cells, two days, high dose 10 uM) |
| --- | --- | --- | --- | --- | --- |
| Cn1cnc2c(c(-c3cc(Cl)c(O)c(C(N)=O)c3)cn2CC(=O)Nc2cn3ccnc3cc2Cl)c1=O [Compound I-173] | 44.6 µM | 5.72 µM | 200 nM | – | – |
| CCN(C)c1nc2c(c(-c3cc(Cl)c(O)c(C(N)=O)c3)cn2CC(=O)Nc2cc(N3CCOC[C@@H]3C)ncc2Cl)c(=O)n1C [Compound I-269, (S)-3-chloro-5-(7-(2-((5-chloro-2-(3-methylmorpholino)pyridin-4-yl)amino)-2-oxoethyl)-2-(ethyl(methyl)amino)-3-methyl-4-oxo-4,7-dihydro-3H-pyrrolo[2,3-d]pyrimidin-5-yl)-2-hydroxybenzamide] | 8.55 µM | 1.7 µM | 157 nM | – | – |
| Cn1cnc2c(c(-c3cc(C(N)=O)c(O)c(F)c3F)cn2CC(=O)Nc2cc(N3C4CCC3CN(CC(F)(F)F)C4)ncc2Cl)c1=O [Compound I-465] | 4.47 µM | 1.17 µM | 84.9 nM | – | – |
| CN1CCc2cc(NC(=O)Cn3cc(-c4cc(Cl)c(O)c(C(N)=O)c4)c4c(=O)n(C)cnc43)c(Cl)cc21 [Compound I-183] | 3.91 µM | 10 µM | 221 nM | – | – |
| COCCN1CCN(c2cc(NC(=O)Cn3cc(-c4cc(C(N)=O)c(O)c(F)c4F)c4c(=O)n(C)cnc43)c(Cl)cn2)[C@@H](C)C1 [Compound I-414] | 0.374 µM | 0.455 µM | 17.9 nM | – | – |
| CC(C)N1CCN(c2cc(NC(=O)Cn3cc(-c4cc(F)c(O)c(C(N)=O)c4)c4c(=O)n(C)cnc43)c(Cl)cn2)[C@@H](C)C1 [Compound I-295] | 0.14 µM | 0.106 µM | 7.84 nM | – | – |
| C[C@@H]1CN(c2cc(NC(=O)Cn3cc(-c4cc(Cl)c(O)c(C(N)=O)c4)c4c(=O)[nH]cnc43)c(Cl)cn2)C[C@H](C)O1 [Compound I-166] | 0.184 µM | 0.0862 µM | 15 nM | – | – |
| Cn1cnc2c(c(-c3cc(Cl)c(O)c(C(N)=O)c3)cn2CC(=O)Nc2cc(N3CC4CCC(F)(F)C4C3)ncc2Cl)c1=O (stereo not drawn) [Compound I-278] | 0.622 µM | 1.13 µM | 42.5 nM | – | – |
| CCN1CCN(c2cc(NC(=O)Cn3cc(-c4cc(Cl)c(O)c(C(N)=O)c4)c4c(=O)n(C)c(C(F)(F)F)nc43)c(Cl)cn2)[C@@H](C)C1 [Compound I-376] | 0.385 µM | 0.366 µM | 73.4 nM | – | – |
| C[C@@H](C1CC1)N1CCN(c2cc(NC(=O)Cn3cc(-c4cc(C(N)=O)c(O)c(F)c4F)c4c(=O)n(C)cnc43)c(Cl)cn2)[C@@H](C)C1 [Compound I-424] | 0.309 µM | 0.157 µM | 26.1 nM | – | – |
| CN(C1CCC(c2cc(NC(=O)Cn3cc(-c4cc(Cl)c(O)c(C(N)=O)c4)c4c(=O)n(C)cnc43)c(Cl)cn2)C1)S(C)(=O)=O (stereo not drawn) [Compound I-149] | – | – | 16.3 nM | 0.617 µM | 0.725 µM |
| Cc1c(O)c(C(N)=O)cc(-c2cn(CC(=O)Nc3cc(N4C[C@@H](C)O[C@@H](C)C4)ncc3Cl)c3ncn(C)c(=O)c23)c1F [Compound I-119] | > 10 µM | > 10 µM | 4000 nM | – | – |
| COCCN1CCN(c2cc(NC(=O)Cn3cc(-c4cc(F)c(O)c(C(N)=O)c4)c4c(=O)n(C)cnc43)c(Cl)c(F)n2)[C@@H](C)C1 [Compound I-448] | 0.0483 µM | 0.0446 µM | 3.42 nM | – | – |
| Cn1cnc2c(c(-c3cc(Cl)c(O)c(C(N)=O)c3)cn2CC(=O)NC2CCCCC2F)c1=O (stereo not drawn) [Compound I-246] | 10 µM | 10 µM | 1320 nM | – | – |
| Cn1cnc2c(c(-c3cc(Cl)c(O)c(C(N)=O)c3)cn2CC(=O)Nc2cc(N3C4CCC3COC4)ncc2Cl)c1=O [Compound I-279] | 0.468 µM | 0.197 µM | 10.2 nM | – | – |
| Cc1nc2c(c(-c3cc(C(N)=O)c(O)c(F)c3F)cn2CC(=O)Nc2cc(N3CCOC[C@@H]3C)nc(F)c2Cl)c(=O)n1C [Compound I-316] | 0.243 µM | 0.376 µM | 24.1 nM | – | – |
| Cn1cnc2c(c(-c3cc(F)c(O)c(C(N)=O)c3)cn2CC(=O)Nc2cc(N3CCCC3)ncc2Cl)c1=O [Compound I-273] | 0.416 µM | 0.251 µM | 5.31 nM | – | – |
| C[C@H]1CN(C)CCN1c1cc(NC(=O)Cn2cc(-c3cc(Cl)c(O)c(C(N)=O)c3)c3c(=O)n(C)c(-c4ccccc4)nc32)c(Cl)cn1 [Compound I-260, (S)-3-chloro-5-(7-(2-((5-chloro-2-(2,4-dimethylpiperazin-1-yl)pyridin-4-yl)amino)-2-oxoethyl)-3-methyl-4-oxo-2-phenyl-4,7-dihydro-3H-pyrrolo[2,3-d]pyrimidin-5-yl)-2-hydroxybenzamide] | 10 µM | 0.238 µM | 58.8 nM | – | – |
| Cc1nc2cc(Cl)c(NC(=O)Cn3cc(-c4cc(F)c(O)c(C(N)=O)c4)c4c(=O)n(C)cnc43)cc2o1 [Compound I-159] | 0.282 µM | 0.282 µM | 47.7 nM | – | – |
